Data from patent US4847245A, “N-demethylefrotomycin” (Pfizer Inc., priority 1988, dated 1989).
Values after ≈ are worked out from the molar mass of the structure shown. Where two headings read alike, the source gives them in different places.

Key:
[1] = test system: Acto. pyog.; assay: MIC in brain heart infusion (BHI) broth, two-fold dilutions; format: cell-based; settings: 24 h
Description: (§1) Generally twelve 2 fold dilutions of the test compound are employed, with initial concentration of the test drug being in the range of 50 to 200 mcg./ml. The susceptibility (MIC) of the test organism is accepted as the lowest concentration of compound capable of producing complete inhibition of growth as judged by the naked eye.

[2] = test system: E. coli; assay: as above; format: cell-based; settings: Escherichia coli
Description: as §1

[3] = test system: Fusob. necro.; assay: as above; format: cell-based; settings: 24 h
Description: as §1

[4] = test system: Hemoph. pleur.; assay: as above; format: cell-based; settings: 24 h
Description: as §1

[5] = test system: Lact. acidoph.; assay: as above; format: cell-based; settings: 24 h; Lact. acidoph. 001, Day 1
Description: as §1

[6] = test system: Lact. sp.; assay: as above; format: cell-based; settings: 24 h; Lact. sp. 001, Day 1
Description: as §1

[7] = test system: Morax. bovis; assay: as above; format: cell-based
Description: as §1

[8] = test system: Past. haem.; assay: as above; format: cell-based
Description: as §1

[9] = test system: Past. mult; assay: as above; format: cell-based
Description: as §1

[10] = test system: Staph. aureus; assay: as above; format: cell-based; settings: Staphylococcus aureus
Description: as §1

[11] = test system: Strep. zooedid.; assay: as above; format: cell-based; settings: 24 h; Strep. zooedid. 001, Day 1
Description: as §1

[12] = test system: Trepo. hyodis.; assay: as above; format: cell-based; settings: 24 h
Description: as §1

[13] = test system: Past. haem. 010; assay: mouse protection test; format: in vivo; settings: mice infected i.p. with multilethal amounts of Past. haem. 010
Description: Additionally, compound (I) is tested in vivo by the well-known mouse protection test, or by a microbiological (bioassay) determination of serum levels in a variety of mammals (e.g., mouse, rat, dog). For example, at subcutaneous doses of either 100 mg./kg. or 25 mg./kg., there was survival of 5/5 mice infected i.p. with multilethal amounts of Past. haem. 010.

Work on CC=CC=CC1OC(O)(C(CC)C(=O)NCC=CC=C(C)C(OC)C(C)C2OC(C=CC=CC=C(C)C(=O)c3c(O)cc[nH]c3=O)C(O)C2O)C(O)C(OC2OC(C)C(OC3OC(C)C(OC)C(O)C3OC)C(OC)C2O)C1(C)C (stereo not drawn) [N--Demethylefrotomycin, N-demethylefrotomycin] yielded an MIC ([1]; Acto. pyog. 002, Day 1) of 12.5 µg/mL (≈ 11 µM), an MIC ([1]; Acto. pyog. 008, Day 1) of 12.5 µg/mL (≈ 11 µM) and an MIC ([1]; Acto. pyog. 011, Day 1, read-out: MIC) of 100 µg/mL (≈ 88.4 µM). It also gave an MIC ([2]; 24 h, E. coli 124, Day 1) greater than 100 µg/mL, an MIC ([2]; 48 h, E. coli 124, Day 2) greater than 100 µg/mL and an MIC ([3]; Fusob. necro. 004, Day 1) of 25 µg/mL (≈ 22.1 µM). The MIC ([3]; Fusob. necro. 006, Day 1) was 6.25 µg/mL (≈ 5.52 µM), the MIC ([4]; Hemoph. pleur. 004, Day 1) was 12.5 µg/mL (≈ 11 µM) and the MIC ([4]; Hemoph. pleur. 005, Day 1) was 12.5 µg/mL (≈ 11 µM). It also gave an MIC ([4]; Hemoph. pleur. 024, Day 1, read-out: MIC) greater than 100 µg/mL, an MIC [5] of 12.5 µg/mL (≈ 11 µM) and an MIC [6] greater than 100 µg/mL. It also gave an MIC ([7]; 24 h, Morax. bovis 001, Day 1) of 6.25 µg/mL (≈ 5.52 µM), an MIC ([7]; 48 h, Morax. bovis 001, Day 2) of 3.12 µg/mL (≈ 2.76 µM) and an MIC ([8]; 24 h) of 12.5 µg/mL (≈ 11 µM). It also gave an MIC ([8]; 24 h, Past. haem. 010, Day 1, read-out: MIC) of 3.12 µg/mL (≈ 2.76 µM), an MIC ([8]; 24 h, Past. haem. 046, Day 1, read-out: MIC) of 25 µg/mL (≈ 22.1 µM) and an MIC ([8]; 24 h, Past. haem. 061, Day 1, read-out: MIC) of 25 µg/mL (≈ 22.1 µM). For the same compound, the MIC ([8]; 48 h) was 12.5 µg/mL (≈ 11 µM), the MIC ([8]; 48 h, Past. haem. 061, Day 2, read-out: MIC) was 3.12 µg/mL (≈ 2.76 µM) and the MIC ([8]; Past. haem. 046, Day 2) was 12.5 µg/mL (≈ 11 µM). For the same compound, the MIC ([9]; 24 h, Past. mult 006, Day 1, read-out: MIC) was 6.25 µg/mL (≈ 5.52 µM), the MIC ([9]; 24 h, Past. mult 048, Day 1, read-out: MIC) was 3.12 µg/mL (≈ 2.76 µM) and the MIC ([9]; 48 h) was 12.5 µg/mL (≈ 11 µM). For the same compound, the MIC ([9]; 48 h, Past. mult 048, Day 2, read-out: MIC) was 6.25 µg/mL (≈ 5.52 µM), the MIC ([10]; 24 h, Staph. aureus 006, Day 1) was greater than 100 µg/mL and the MIC ([10]; 48 h, Staph. aureus 006, Day 2) was greater than 100 µg/mL. For the same compound, the MIC [11] was greater than 100 µg/mL, the MIC ([12]; Trepo. hyodis. 001, Day 1) was 1.56 µg/mL (≈ 1.38 µM) and the MIC ([12]; Trepo. hyodis. 002, Day 1) was 0.78 µg/mL (≈ 0.689 µM). The MIC ([12]; Trepo. hyodis. 007, Day 1) was 1.56 µg/mL (≈ 1.38 µM), the survival of mice ([13]; subcutaneous 25 mg./kg.) was 5/5 and the survival of mice ([13]; subcutaneous 100 mg./kg.) was 5/5.
